Results taken from ChEMBL document CHEMBL3991601, “The target landscape of clinical kinase drugs” (Science, 2017).
Calls of active or inactive are those of the source. For most assays here, no stated cut-off is given here; in the data, actives have a measured Kd and inactives only a lower limit.

How the values were obtained:
[1] = target: Receptor-interacting serine/threonine-protein kinase 3 (Homo sapiens, UniProt Q9Y572)
[2] = target: Rho-associated protein kinase 1 (Homo sapiens, UniProt Q13464)
[3] = target: T1, Septin-9 (Homo sapiens, UniProt Q9UHD8)
T1 sequence (Q9UHD8 whole entry): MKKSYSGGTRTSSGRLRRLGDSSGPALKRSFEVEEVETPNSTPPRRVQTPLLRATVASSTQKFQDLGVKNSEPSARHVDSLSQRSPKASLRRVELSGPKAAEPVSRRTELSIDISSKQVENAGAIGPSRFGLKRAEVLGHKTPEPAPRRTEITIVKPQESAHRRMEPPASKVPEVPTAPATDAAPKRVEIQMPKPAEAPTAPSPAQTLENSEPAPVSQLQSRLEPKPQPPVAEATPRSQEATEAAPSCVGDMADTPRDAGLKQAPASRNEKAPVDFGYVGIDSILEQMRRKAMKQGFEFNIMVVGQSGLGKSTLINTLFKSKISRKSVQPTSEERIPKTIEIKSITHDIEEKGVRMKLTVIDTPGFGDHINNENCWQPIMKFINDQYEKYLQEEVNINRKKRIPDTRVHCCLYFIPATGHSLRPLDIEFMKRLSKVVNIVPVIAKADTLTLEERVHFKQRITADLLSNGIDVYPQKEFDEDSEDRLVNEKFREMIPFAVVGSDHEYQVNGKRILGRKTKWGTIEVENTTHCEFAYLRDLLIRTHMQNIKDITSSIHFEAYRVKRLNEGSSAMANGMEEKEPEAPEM

[4] = target: Glycogen synthase kinase-3 alpha (Homo sapiens, UniProt P49840)
[5] = target: T2, AarF domain-containing protein kinase 1 (Homo sapiens, UniProt Q86TW2)
T2 sequence (Q86TW2 whole entry): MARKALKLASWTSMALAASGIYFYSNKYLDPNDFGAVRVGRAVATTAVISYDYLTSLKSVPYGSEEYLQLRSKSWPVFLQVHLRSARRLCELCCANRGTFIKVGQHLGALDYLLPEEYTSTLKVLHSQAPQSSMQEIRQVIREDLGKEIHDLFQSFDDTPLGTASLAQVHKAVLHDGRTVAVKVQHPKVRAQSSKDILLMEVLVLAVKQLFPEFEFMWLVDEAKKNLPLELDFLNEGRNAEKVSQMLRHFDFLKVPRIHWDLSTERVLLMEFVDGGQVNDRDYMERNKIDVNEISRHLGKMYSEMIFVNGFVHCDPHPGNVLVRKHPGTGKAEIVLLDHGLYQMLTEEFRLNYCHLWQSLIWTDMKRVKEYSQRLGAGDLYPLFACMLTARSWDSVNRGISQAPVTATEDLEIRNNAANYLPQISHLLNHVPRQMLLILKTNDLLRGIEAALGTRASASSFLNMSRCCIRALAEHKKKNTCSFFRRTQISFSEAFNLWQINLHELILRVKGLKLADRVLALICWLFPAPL

[6] = target: Ribosomal protein S6 kinase alpha-4 (Homo sapiens, UniProt O75676)
[7] = target: T3, Glycine--tRNA ligase (Homo sapiens, UniProt P41250)
T3 sequence (P41250 whole entry): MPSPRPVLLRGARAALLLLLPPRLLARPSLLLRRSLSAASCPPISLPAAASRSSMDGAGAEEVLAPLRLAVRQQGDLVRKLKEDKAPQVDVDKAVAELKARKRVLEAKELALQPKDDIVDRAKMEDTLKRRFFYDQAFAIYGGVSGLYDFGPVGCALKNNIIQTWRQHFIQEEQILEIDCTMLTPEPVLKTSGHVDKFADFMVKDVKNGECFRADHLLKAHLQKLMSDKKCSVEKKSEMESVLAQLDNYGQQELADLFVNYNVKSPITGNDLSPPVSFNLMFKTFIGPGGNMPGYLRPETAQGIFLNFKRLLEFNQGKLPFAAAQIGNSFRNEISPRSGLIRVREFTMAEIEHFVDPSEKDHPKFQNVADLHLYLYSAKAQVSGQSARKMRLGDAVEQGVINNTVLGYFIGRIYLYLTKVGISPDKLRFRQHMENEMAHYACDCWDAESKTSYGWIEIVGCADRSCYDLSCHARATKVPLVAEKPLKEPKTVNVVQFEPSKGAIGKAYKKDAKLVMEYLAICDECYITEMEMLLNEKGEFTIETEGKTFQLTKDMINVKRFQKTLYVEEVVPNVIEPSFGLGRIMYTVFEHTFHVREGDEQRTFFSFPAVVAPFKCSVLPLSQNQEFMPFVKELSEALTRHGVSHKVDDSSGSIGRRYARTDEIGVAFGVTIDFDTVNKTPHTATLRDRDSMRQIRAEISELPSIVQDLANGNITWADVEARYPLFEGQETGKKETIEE

[8] = target: Platelet-derived growth factor receptor beta (Homo sapiens, UniProt P09619)
Chain of Platelet-derived growth factor receptor beta (P09619 whole entry): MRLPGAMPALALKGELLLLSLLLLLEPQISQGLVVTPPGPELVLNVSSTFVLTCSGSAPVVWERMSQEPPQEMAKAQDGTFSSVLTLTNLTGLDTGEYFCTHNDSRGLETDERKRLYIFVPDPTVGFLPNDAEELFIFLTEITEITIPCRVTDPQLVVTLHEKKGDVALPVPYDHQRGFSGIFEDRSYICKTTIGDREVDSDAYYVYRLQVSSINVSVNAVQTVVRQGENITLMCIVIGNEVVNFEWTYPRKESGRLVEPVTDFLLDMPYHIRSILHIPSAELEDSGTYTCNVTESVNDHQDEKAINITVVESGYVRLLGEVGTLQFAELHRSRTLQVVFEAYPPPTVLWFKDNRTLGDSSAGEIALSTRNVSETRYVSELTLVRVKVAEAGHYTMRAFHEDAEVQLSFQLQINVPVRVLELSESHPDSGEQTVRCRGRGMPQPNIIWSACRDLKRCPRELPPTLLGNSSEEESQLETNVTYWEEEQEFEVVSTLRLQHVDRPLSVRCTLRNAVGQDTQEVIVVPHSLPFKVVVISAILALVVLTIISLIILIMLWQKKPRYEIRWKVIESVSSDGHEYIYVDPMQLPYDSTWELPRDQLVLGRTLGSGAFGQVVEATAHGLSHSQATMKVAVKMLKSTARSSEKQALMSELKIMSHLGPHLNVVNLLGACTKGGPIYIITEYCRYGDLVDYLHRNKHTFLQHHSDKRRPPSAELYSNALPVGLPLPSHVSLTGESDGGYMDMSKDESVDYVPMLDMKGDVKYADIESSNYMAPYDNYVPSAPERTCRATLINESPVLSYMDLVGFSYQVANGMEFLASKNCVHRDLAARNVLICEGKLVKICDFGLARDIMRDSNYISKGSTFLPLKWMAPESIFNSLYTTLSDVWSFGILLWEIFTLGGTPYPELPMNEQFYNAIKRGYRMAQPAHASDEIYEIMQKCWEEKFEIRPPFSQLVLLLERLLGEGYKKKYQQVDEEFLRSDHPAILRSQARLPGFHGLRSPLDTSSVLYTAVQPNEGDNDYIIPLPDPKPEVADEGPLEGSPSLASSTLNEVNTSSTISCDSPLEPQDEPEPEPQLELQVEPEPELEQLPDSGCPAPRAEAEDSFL

Chain of Glycogen synthase kinase-3 alpha (P49840 whole entry, the tested form may be a part): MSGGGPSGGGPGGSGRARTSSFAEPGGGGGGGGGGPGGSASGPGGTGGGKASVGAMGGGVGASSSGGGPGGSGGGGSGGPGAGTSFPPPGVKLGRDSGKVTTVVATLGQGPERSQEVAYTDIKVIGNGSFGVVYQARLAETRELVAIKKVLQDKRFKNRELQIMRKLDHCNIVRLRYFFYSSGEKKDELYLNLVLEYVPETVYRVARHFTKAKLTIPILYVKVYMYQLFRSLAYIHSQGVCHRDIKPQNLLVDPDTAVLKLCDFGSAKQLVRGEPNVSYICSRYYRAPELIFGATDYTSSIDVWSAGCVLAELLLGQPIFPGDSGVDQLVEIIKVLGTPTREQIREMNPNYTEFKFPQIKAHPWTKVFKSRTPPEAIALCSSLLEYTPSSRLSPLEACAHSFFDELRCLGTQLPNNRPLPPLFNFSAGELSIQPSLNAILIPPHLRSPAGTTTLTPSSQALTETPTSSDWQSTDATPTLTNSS
Chain of Ribosomal protein S6 kinase alpha-4 (O75676 whole entry): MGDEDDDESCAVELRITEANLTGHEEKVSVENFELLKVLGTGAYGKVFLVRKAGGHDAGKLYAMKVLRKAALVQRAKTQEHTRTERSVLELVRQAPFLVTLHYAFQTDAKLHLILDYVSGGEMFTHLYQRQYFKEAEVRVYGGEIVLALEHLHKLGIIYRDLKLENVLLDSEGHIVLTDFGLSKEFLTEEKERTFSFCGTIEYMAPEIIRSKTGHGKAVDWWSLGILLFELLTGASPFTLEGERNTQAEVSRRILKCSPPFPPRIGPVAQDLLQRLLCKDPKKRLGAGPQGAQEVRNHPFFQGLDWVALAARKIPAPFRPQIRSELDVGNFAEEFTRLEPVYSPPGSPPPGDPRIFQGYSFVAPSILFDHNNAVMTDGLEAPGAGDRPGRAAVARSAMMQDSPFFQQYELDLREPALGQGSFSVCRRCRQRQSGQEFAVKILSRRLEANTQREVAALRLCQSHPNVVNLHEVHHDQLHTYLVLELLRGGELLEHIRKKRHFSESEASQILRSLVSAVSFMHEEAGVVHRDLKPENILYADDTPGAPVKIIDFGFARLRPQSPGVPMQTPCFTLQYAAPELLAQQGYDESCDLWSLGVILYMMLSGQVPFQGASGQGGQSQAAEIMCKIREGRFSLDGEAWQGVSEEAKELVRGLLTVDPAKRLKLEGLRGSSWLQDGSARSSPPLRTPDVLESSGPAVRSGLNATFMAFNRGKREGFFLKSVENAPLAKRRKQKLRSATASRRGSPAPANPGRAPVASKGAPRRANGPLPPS
Chain of Rho-associated protein kinase 1 (Q13464 whole entry): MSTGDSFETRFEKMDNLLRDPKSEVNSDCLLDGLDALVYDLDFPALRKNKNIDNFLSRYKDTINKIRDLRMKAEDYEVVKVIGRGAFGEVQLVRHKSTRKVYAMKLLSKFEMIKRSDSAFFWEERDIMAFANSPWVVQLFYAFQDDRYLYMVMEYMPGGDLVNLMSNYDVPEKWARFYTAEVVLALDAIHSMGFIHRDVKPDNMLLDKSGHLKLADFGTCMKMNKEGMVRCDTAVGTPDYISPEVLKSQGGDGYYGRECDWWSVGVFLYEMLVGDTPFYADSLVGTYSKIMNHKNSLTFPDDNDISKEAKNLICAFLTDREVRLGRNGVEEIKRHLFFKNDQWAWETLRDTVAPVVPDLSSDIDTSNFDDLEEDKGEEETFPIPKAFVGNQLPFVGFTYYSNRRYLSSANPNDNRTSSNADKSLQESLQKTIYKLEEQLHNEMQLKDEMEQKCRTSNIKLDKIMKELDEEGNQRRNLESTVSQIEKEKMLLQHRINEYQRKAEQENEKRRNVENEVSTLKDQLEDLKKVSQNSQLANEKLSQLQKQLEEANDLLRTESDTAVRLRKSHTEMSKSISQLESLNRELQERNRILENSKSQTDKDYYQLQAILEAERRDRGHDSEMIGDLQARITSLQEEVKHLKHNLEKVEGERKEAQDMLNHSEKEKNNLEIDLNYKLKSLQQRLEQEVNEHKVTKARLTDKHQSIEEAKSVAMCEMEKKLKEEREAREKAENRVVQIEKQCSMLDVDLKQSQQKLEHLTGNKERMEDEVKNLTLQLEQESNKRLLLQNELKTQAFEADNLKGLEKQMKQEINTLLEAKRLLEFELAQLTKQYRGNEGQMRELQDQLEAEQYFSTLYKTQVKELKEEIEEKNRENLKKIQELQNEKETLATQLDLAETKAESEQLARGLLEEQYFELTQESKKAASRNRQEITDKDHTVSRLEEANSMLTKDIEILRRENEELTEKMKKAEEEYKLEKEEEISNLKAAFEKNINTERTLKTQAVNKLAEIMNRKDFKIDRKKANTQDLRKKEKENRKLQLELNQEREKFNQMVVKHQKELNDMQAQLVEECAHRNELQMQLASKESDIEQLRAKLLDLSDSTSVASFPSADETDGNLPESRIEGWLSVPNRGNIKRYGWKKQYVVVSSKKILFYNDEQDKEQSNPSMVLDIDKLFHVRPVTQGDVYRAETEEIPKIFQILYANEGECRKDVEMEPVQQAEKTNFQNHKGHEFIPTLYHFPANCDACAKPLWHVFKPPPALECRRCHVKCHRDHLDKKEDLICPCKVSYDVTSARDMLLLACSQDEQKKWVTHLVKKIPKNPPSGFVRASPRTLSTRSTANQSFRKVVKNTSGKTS
Chain of Receptor-interacting serine/threonine-protein kinase 3 (Q9Y572 whole entry): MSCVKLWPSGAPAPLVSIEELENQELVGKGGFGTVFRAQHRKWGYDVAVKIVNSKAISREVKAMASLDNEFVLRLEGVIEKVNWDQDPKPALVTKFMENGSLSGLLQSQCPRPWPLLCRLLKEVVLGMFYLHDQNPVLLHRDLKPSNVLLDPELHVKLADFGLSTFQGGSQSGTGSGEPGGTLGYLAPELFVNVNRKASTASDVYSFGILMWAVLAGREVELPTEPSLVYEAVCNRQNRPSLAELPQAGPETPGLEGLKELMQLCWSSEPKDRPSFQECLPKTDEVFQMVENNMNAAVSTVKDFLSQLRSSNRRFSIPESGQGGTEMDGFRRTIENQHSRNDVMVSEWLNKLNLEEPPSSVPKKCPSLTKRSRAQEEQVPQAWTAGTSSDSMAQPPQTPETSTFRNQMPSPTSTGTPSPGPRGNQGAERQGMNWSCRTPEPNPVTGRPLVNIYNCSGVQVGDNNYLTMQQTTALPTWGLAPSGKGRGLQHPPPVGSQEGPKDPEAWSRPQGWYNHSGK

Compound	Kd [1]	Kd [2]	Kd [3]	Kd [4]	Kd [5]	Kd [6]	Kd [7]	Kd [8]
O=c1sn(-c2cccc3ccccc23)c(=O)n1Cc1ccccc1 [TIDEGLUSIB]	> 30 µM (inactive)	> 30 µM (inactive)	> 30 µM (inactive)	> 30 µM (inactive)	> 30 µM (inactive)	> 30 µM (inactive)	> 30 µM (inactive)	> 30 µM (inactive)
Cn1cc(-c2ccc3nnc(C(F)(F)c4ccc5ncccc5c4)n3n2)cn1 [JNJ-38877605]	> 30 µM (inactive)	> 30 µM (inactive)	> 30 µM (inactive)	> 30 µM (inactive)	> 30 µM (inactive)	> 30 µM (inactive)	> 30 µM (inactive)	> 30 µM (inactive)
Cn1ncc(Cl)c1-c1cc(C(=O)N[C@H](CN)Cc2cccc(F)c2)sc1Cl [AFURESERTIB]	> 30 µM (inactive)	2.14 µM (active)	> 30 µM (inactive)	> 30 µM (inactive)	> 30 µM (inactive)	> 30 µM (inactive)	> 30 µM (inactive)	> 30 µM (inactive)
CNS(=O)(=O)Nc1nccc(Cc2c(C)c3ccc(Oc4ncccn4)cc3oc2=O)c1F [AVUTOMETINIB]	> 30 µM (inactive)	> 30 µM (inactive)	> 30 µM (inactive)	> 30 µM (inactive)	> 30 µM (inactive)	> 30 µM (inactive)	> 30 µM (inactive)	> 30 µM (inactive)
CN(C)C(=O)c1cc2cnc(Nc3ccc(N4CCNCC4)cn3)nc2n1C1CCCC1 [RIBOCICLIB]	> 30 µM (inactive)	> 30 µM (inactive)	> 30 µM (inactive)	> 30 µM (inactive)	> 30 µM (inactive)	> 30 µM (inactive)	> 30 µM (inactive)	> 30 µM (inactive)
CCc1cnn2c(NCc3ccc[n+]([O-])c3)cc(N3CCCC[C@H]3CCO)nc12 [DINACICLIB]	> 30 µM (inactive)	–	> 30 µM (inactive)	1.47 µM (active)	> 30 µM (inactive)	> 30 µM (inactive)	> 30 µM (inactive)	–
COc1ccc(-c2ccc3c(N4CCOC[C@@H]4C)nc(N4CCOC[C@@H]4C)nc3n2)cc1CO [AZD-8055]	> 30 µM (inactive)	> 30 µM (inactive)	> 30 µM (inactive)	> 30 µM (inactive)	> 30 µM (inactive)	> 30 µM (inactive)	> 30 µM (inactive)	> 30 µM (inactive)
COc1cc2nccc(Oc3ccc(NC(=O)Nc4cc(C)on4)c(Cl)c3)c2cc1OC [TIVOZANIB]	1.35 µM (active)	> 30 µM (inactive)	> 30 µM (inactive)	> 30 µM (inactive)	> 30 µM (inactive)	> 30 µM (inactive)	> 30 µM (inactive)	2.41 µM (active)
C[C@@H](Nc1cc(F)cc(F)c1)c1cc(C(=O)N(C)C)cc2c(=O)cc(N3CCOCC3)oc12 [AZD-8186]	> 30 µM (inactive)	> 30 µM (inactive)	> 30 µM (inactive)	> 30 µM (inactive)	> 30 µM (inactive)	> 30 µM (inactive)	> 30 µM (inactive)	> 30 µM (inactive)
CNC(=O)CN1CCC(Oc2cc3c(Nc4cccc(Cl)c4F)ncnc3cc2OC)CC1 [SAPITINIB]	1.17 µM (active)	> 30 µM (inactive)	> 30 µM (inactive)	> 30 µM (inactive)	> 30 µM (inactive)	> 30 µM (inactive)	> 30 µM (inactive)	> 30 µM (inactive)
CCCS(=O)(=O)Nc1ccc(F)c(C(=O)c2c[nH]c3ncc(-c4ccc(Cl)cc4)cc23)c1F [VEMURAFENIB]	2.08 µM (active)	> 30 µM (inactive)	> 30 µM (inactive)	> 30 µM (inactive)	> 30 µM (inactive)	> 30 µM (inactive)	> 30 µM (inactive)	> 30 µM (inactive)
Cc1cn(-c2cc(NC(=O)c3ccc(C)c(Nc4nccc(-c5cccnc5)n4)c3)cc(C(F)(F)F)c2)cn1 [NILOTINIB]	1.27 µM (active)	–	> 30 µM (inactive)	–	> 30 µM (inactive)	–	> 30 µM (inactive)	–
CNC(=O)c1cc(Oc2ccc(NC(=O)Nc3ccc(Cl)c(C(F)(F)F)c3)c(F)c2)ccn1 [REGORAFENIB]	0.368 µM (active)	> 30 µM (inactive)	> 30 µM (inactive)	> 30 µM (inactive)	> 30 µM (inactive)	> 30 µM (inactive)	> 30 µM (inactive)	–
Cc1cc(Nc2cc(N3CCN(C)CC3)nc(/C=C/c3ccccc3)n2)n[nH]1 [ENMD-2076]	> 30 µM (inactive)	–	> 30 µM (inactive)	–	> 30 µM (inactive)	> 30 µM (inactive)	> 30 µM (inactive)	–
OCCn1cc(-c2cnc3nnn(Cc4ccc5ncccc5c4)c3n2)cn1 [PF-04217903]	> 30 µM (inactive)	–	> 30 µM (inactive)	–	> 30 µM (inactive)	> 30 µM (inactive)	> 30 µM (inactive)	–
CC(C)Nc1cc(-c2c[nH]c(C(=O)N[C@H](CO)c3cccc(Cl)c3)c2)c(Cl)cn1 [ULIXERTINIB]	> 30 µM (inactive)	–	> 30 µM (inactive)	> 30 µM (inactive)	> 30 µM (inactive)	> 30 µM (inactive)	> 30 µM (inactive)	> 30 µM (inactive)
O=C(Nc1cccc(Cl)c1)Nc1ncc(CCNc2ncnc3ccsc23)s1 [SNS-314]	> 30 µM (inactive)	–	> 30 µM (inactive)	–	> 30 µM (inactive)	> 30 µM (inactive)	> 30 µM (inactive)	–
Cc1nc(N)sc1-c1ccnc(Nc2ccc(N3CCOCC3)cc2)n1 [CYC-116]	4.82 µM (active)	–	> 30 µM (inactive)	–	0.545 µM (active)	–	> 30 µM (inactive)	–
CCn1c(-c2nonc2N)nc2c(C#CC(C)(C)O)ncc(OC[C@H]3CCCNC3)c21 [GSK-690693]	> 30 µM (inactive)	–	> 30 µM (inactive)	–	> 30 µM (inactive)	–	> 30 µM (inactive)	–
CN1CCN(c2ccc3nc(-c4c(N)c5c(F)cccc5[nH]c4=O)[nH]c3c2)CC1 [DOVITINIB]	> 30 µM (inactive)	–	> 30 µM (inactive)	–	> 30 µM (inactive)	–	> 30 µM (inactive)	–
Nc1nc(N)c2nc(-c3cccc(O)c3)c(-c3cccc(O)c3)nc2n1 [TG100-115]	3.67 µM	–	> 30 µM (inactive)	–	> 30 µM (inactive)	–	> 30 µM (inactive)	–
O=C(Nc1ccc(-c2ccnc(Nc3ccc(N4CCOCC4)cc3)n2)cc1)C1CCCN1 (centres undefined) [XL-019]	> 30 µM (inactive)	–	> 30 µM (inactive)	> 30 µM (inactive)	0.202 µM (active)	> 30 µM (inactive)	> 30 µM (inactive)	1.12 µM (active)
COc1cc(CCc2cc(NC(=O)c3ccc(N4C[C@@H](C)N[C@@H](C)C4)cc3)n[nH]2)cc(OC)c1 [AZD-4547]	> 30 µM (inactive)	–	> 30 µM (inactive)	> 30 µM (inactive)	> 30 µM (inactive)	> 30 µM (inactive)	> 30 µM (inactive)	0.288 µM (active)
